Structures can show the parent of a compound that is named as a salt.
System: MDA-MB-231 cells
Experiment: Extracellular lactate production inhibition after 4 h, MDA-MB-231

IC50 (Homo sapiens, MDA-MB-231) [nM] | SMILES | IC50 (Table 3, group class A-D, the table does not say which assay or cell line ("the assays described above")) [nM]
10 to 100 | CCOc1cc(C(=O)O)ncc1C#Cc1ccccc1NS(=O)(=O)c1ccc(OC)c2cccnc12 [Compound 176, 4-ethoxy-5-{2-[2-(5-methoxyquinoline-8-sulfonamido)phenyl]ethynyl}pyridine-2-carboxylic acid] | 
100 to 1000 | O=C(O)c1ccc(C#Cc2ccccc2NS(=O)(=O)c2ccc(C3=CCCCC3)cc2)cn1 [Compound 177, 5-(2-{2-[4-(cyclohex-1-en-1-yl)benzenesulfonamido]phenyl}-ethynyl)pyridine-2-carboxylic acid] | 
100 to 1000 | O=CN(Cc1cccc2cccnc12)c1ccccc1C#Cc1ccc(C(=O)O)nc1 [Compound 178, 5-[2-(2-{N-[(quinolin-8-yl)methyl]formamido}phenyl)ethynyl] pyridine-2-carboxylic acid] | 
100 to 1000 | COc1ccccc1-c1cccc(CN(C=O)c2ccccc2C#Cc2ccc(C(=O)O)nc2)c1 [Compound 179, 5-(2-{2-[N-({2′-methoxy-[1,1′-biphenyl]-3-yl}methyl)formamido]phenyl}ethynyl) pyridine-2-carboxylic acid] | 
10 to 100 | CCOc1cc(C(=O)O)ncc1C#Cc1ccccc1NS(=O)(=O)c1c(C)ccc2cccnc12 [Compound 180, 4-ethoxy-5-{2-[2-(7-methylquinoline-8-sulfonamido)phenyl]ethynyl}pyridine-2-carboxylic acid] | 
100 to 1000 | O=CN(Cc1cccc(-c2ccccc2)c1)c1ccccc1C#Cc1ccc(C(=O)O)nc1 [Compound 181, 5-(2-{2-[N-({[1,1′-biphenyl]-3-yl}methyl)formamido]phenyl}-ethynyl)pyridine-2-carboxylic acid] | 
100 to 1000 | COc1ccc(S(=O)(=O)Nc2cc(Br)ccc2C#Cc2ccc(C(=O)O)nc2)c2ncccc12 [Compound 182, 5-{2-[4-bromo-2-(5-methoxyquinoline-8-sulfonamido)phenyl]ethynyl}pyridine-2-carboxylic acid] | 
10 to 100 | O=CN(Cc1ccc(-c2ccccc2)cc1)c1ccccc1C#Cc1ccc(C(=O)O)nc1 [Compound 183, 5-(2-{2-[N-({[1,1′-biphenyl]-4-yl}methyl)formamido]phenyl}-ethynyl)pyridine-2-carboxylic acid] | 
1000 to 100000 | COc1ccc(S(=O)(=O)Nc2cc(C(=O)NCCOCc3ccccc3)ccc2C#Cc2ccc(C(=O)O)nc2)c2ncccc12 [Compound 184, 5-[2-(4-{[2-(benzyloxy)ethyl]carbamoyl}-2-(5-methoxyquinoline-8-sulfonamido)-phenyl)ethynyl]pyridine-2-carboxylic acid] | 
10 to 100 | COc1ccc(S(=O)(=O)Nc2ccc(F)cc2C#Cc2ccc(C(=O)O)nc2)c2ncccc12 [Compound 185, 5-{2-[5-fluoro-2-(5-methoxyquinoline-8-sulfonamido)phenyl]ethynyl}pyridine-2-carboxylic acid] | 
100 to 1000 | Cc1ccc2cccnc2c1S(=O)(=O)Nc1cc(Br)ccc1C#Cc1ccc(C(=O)O)nc1 [Compound 186, 5-{2-[4-bromo-2-(7-methylquinoline-8-sulfonamido)phenyl]ethynyl}pyridine-2-carboxylic acid] | 
100 to 1000 | Cc1ccc2cccnc2c1S(=O)(=O)Nc1ccccc1C#Cc1cnc(C(=O)O)cc1N(C)C [Compound 187, 4-(dimethylamino)-5-{2-[2-(7-methylquinoline-8-sulfonamido)phenyl]-ethynyl}pyridine-2-carboxylic acid] | 
100 to 1000 | CCOc1cc(C#Cc2ccccc2NS(=O)(=O)c2c(C)ccc3cccnc23)cnc1C(=O)O [Compound 188, 3-ethoxy-5-{2-[2-(7-methylquinoline-8-sulfonamido)phenyl]ethynyl}pyridine-2-carboxylic acid] | 
100 to 1000 | COc1ccccc1-c1ccccc1CN(C=O)c1ccccc1C#Cc1ccc(C(=O)O)nc1 [Compound 189, 5-(2-{2-[N-({2′-methoxy-[1,1′-biphenyl]-2-yl}methyl)formamido]phenyl}-ethynyl)pyridine-2-carboxylic acid] | 
10 to 100 | COc1ccc(S(=O)(=O)Nc2cc(Cl)c(Cl)cc2C#Cc2ccc(C(=O)O)nc2)c2ncccc12 [Compound 190, 5-{2-[4,5-dichloro-2-(5-methoxyquinoline-8-sulfonamido)phenyl]ethynyl}pyridine-2-carboxylic acid] | 
10 to 100 | COc1ccccc1-c1ccc(CN(C=O)c2ccccc2C#Cc2ccc(C(=O)O)nc2)cc1 [Compound 191, 5-(2-{2-[N-({2′-methoxy-[1,1′-biphenyl]-4-yl}methyl)formamido]phenyl}ethynyl)-pyridine-2-carboxylic acid] | 
1 to 10 | COc1cc(C(=O)O)ncc1C#Cc1ccccc1N(C=O)Cc1ccc(-c2ccccc2)cc1 [Compound 192, 5-(2-{2-[N-({[1,1′-biphenyl]-4-yl}methyl)formamido]phenyl}ethynyl)-4-methoxypyridine-2-carboxylic acid] | 
1000 to 100000 | Cc1ccc2cccnc2c1S(=O)(=O)Nc1ccccc1C#Cc1cnc(C(=O)O)cc1O [Compound 193, 4-hydroxy-5-{2-[2-(7-methylquinoline-8-sulfonamido)phenyl]ethynyl}pyridine-2-carboxylic acid] | 
100 to 1000 | Cc1cc(C#Cc2ccccc2N(C=O)Cc2ccc(-c3ccccc3)cc2)cnc1C(=O)O [Compound 194, 5-(2-{2-[N-({[1,1′-biphenyl]-4-yl}methyl)formamido]phenyl}ethynyl)-3-methylpyridine-2-carboxylic acid] | 

IC50 (Homo sapiens, MDA-MB-231) [nM] | SMILES | IC50 (Table 3, group class A-D, the table does not say which assay or cell line ("the assays described above")) [nM]
100 to 1000 | Cc1cc(C#Cc2ccccc2N(C=O)Cc2ccc3ccccc3c2)cnc1C(=O)O [Compound 195, 3-methyl-5-[2-(2-{N-[(naphthalen-2-yl)methyl]formamido}phenyl)ethynyl]-pyridine-2-carboxylic acid] | 
1000 to 100000 | O=CN(Cc1cnc2ccccc2c1)c1ccccc1C#Cc1ccc(C(=O)O)nc1 [Compound 196, 5-[2-(2-{N-[(quinolin-3-yl)methyl]formamido}phenyl)ethynyl]-pyridine-2-carboxylic acid] | 
100 to 1000 | COc1ccc(C#Cc2ccc(C(=O)O)nc2)c(NS(=O)(=O)c2ccc(OC)c3cccnc23)c1 [Compound 197, 5-{2-[4-methoxy-2-(5-methoxyquinoline-8-sulfonamido)phenyl]ethynyl}pyridine-2-carboxylic acid] | 
100 to 1000 | Cn1c2ccccc2c2c(S(=O)(=O)Nc3ccccc3C#Cc3ccc(C(=O)O)nc3)cccc21 [Compound 198, 5-{2-[2-(9-methyl-9H-carbazole-4-sulfonamido)phenyl]ethynyl}pyridine-2-carboxylic acid] | 
10 to 100 | COc1ccc(S(=O)(=O)Nc2cc(Cl)ccc2C#Cc2ccc(C(=O)O)nc2)c2ncccc12 [Compound 199, 5-{2-[4-chloro-2-(5-methoxyquinoline-8-sulfonamido)phenyl]ethynyl}pyridine-2-carboxylic acid] | 
100 to 1000 | O=CN(CCc1cccc2ccccc12)c1ccccc1C#Cc1ccc(C(=O)O)nc1 [Compound 200, 5-[2-(2-{N-[2-(naphthalen-1-yl)ethyl]-formamido}phenyl)ethynyl]pyridine-2-carboxylic acid] | 
10 to 100 | COc1cc(CN(C=O)c2ccccc2C#Cc2ccc(C(=O)O)nc2)ccc1-c1ccccc1 [Compound 201, 5-(2-{2-[N-({2-methoxy-[1,1′-biphenyl]-4-yl}methyl)formamido]phenyl}-ethynyl)pyridine-2-carboxylic acid] | 
10 to 100 | O=CN(Cc1ccccc1C#Cc1ccc(C(=O)O)nc1)c1ccc2ccccc2c1 [Compound 202, 5-[2-(2-{[N-(naphthalen-2-yl)formamido]methyl}phenyl)-ethynyl]pyridine-2-carboxylic acid] | 
100 to 1000 | O=CN(Cc1cccc(Oc2ccccc2)c1)c1ccccc1C#Cc1ccc(C(=O)O)nc1 [Compound 203, 5-[2-(2-{N-[(3-phenoxyphenyl)methyl]-formamido}phenyl)ethynyl]pyridine-2-carboxylic acid] | 
10 to 100 | Cc1ccc2cccnc2c1S(=O)(=O)Nc1cc(Cl)c(Cl)cc1C#Cc1ccc(C(=O)O)nc1 [Compound 204, 5-{2-[4,5-dichloro-2-(7-methylquinoline-8-sulfonamido)phenyl]ethynyl}pyridine-2-carboxylic acid] | 
 | O=CN(Cc1ccc2ncccc2c1)c1ccccc1C#Cc1ccc(C(=O)O)nc1 [Compound 205, trifluoroacetate] | 1000 to 100000
1 to 10 | CNc1cc(C#Cc2ccccc2NS(=O)(=O)c2c(C)ccc3cccnc23)cnc1C(=O)O [Compound 206, 3-(methylamino)-5-{2-[2-(7-methylquinoline-8-sulfonamido)phenyl]-ethynyl}pyridine-2-carboxylic acid] | 
10 to 100 | C=C(C)c1cc(C(=O)O)ncc1C#Cc1ccccc1NS(=O)(=O)c1ccc(OC)c2cccnc12 [Compound 207] | 
100 to 1000 | COc1ccc(S(=O)(=O)Nc2ccccc2C#Cc2cnc(C(=O)O)c3ccccc23)c2ncccc12 [Compound 209, 4-{2-[2-(5-methoxyquinoline-8-sulfonamido)phenyl]ethynyl}isoquinoline-1-carboxylic acid] | 
10 to 100 | CCOc1ccc2cccnc2c1S(=O)(=O)Nc1ccccc1C#Cc1ccc(C(=O)O)nc1 [Compound 210, 5-{2-[2-(7-ethoxyquinoline-8-sulfonamido)phenyl]ethynyl}pyridine-2-carboxylic acid] | 
10 to 100 | CC(C)Oc1ccc2cccnc2c1S(=O)(=O)Nc1ccccc1C#Cc1ccc(C(=O)O)nc1 [Compound 211, 5-(2-{2-[7-(propan-2-yloxy)quinoline-8-sulfonamido]phenyl}ethynyl)pyridine-2-carboxylic acid] | 
1 to 10 | CNc1cc(C#Cc2ccccc2NS(=O)(=O)c2ccc(OC)c3cccnc23)cnc1C(=O)O [Compound 212, 5-{2-[2-(5-methoxyquinoline-8-sulfonamido)phenyl]ethynyl}-3-(methylamino)pyridine-2-carboxylic acid] | 
10 to 100 | COc1cc(-c2ccccc2)ccc1CN(C=O)c1ccccc1C#Cc1ccc(C(=O)O)nc1 [Compound 213, 5-(2-{2-[N-({3-methoxy-[1,1′-biphenyl]-4-yl}methyl)formamido]phenyl}-ethynyl)pyridine-2-carboxylic acid] | 

Source: patent US12351570B2 (MERCK PATENT GMBH, priority 2018, dated 2025)
